Measurements published in patent publication US8614246B2, “Indole derivatives for treating neurodegenerative diseases” (Centre National de la Recherche Scientifique (CNRS), priority 2009, dated 2013).

Legend:
[1] = system: reactive oxygen species (ROS) in neurones of ventral mesencephalon cultures; test: Cellular test with dihydrorhodamine 123 (DHR-123); format: cell-based, rat; conditions: compounds 10 nM for eight days, 50 μM DHR-123 30 minutes; control = 100; Trolox at 10 μM per FIG. 1
Experimental: Dihydrorhodamine 123 or DHR123 is used as an indicator of reactive oxygen species (ROS). It is uncharged and not fluorescent and passes passively through the cellular membrane before being oxidised in contact with free radicals, into rhodamine 123 emitting green fluorescence.
The quantity of intracellular ROS is reduced when the cells are treated by an anti-oxidant. This reduction results in a quantifiable decay in emitted fluorescence in the presence of DHR123.
In order to conclude the role of the anti-oxidant capacity of compounds according to the invention in the observed neuroprotectrive activity, the cultures were placed strictly under the same conditions as for the neuroprotection/neuritogenesis test. Thus, the cultures were kept for eight days in the presence of a concentration of 10 nM of each of the tested tryptaminic derivatives. On the 8th day in vitro (DIV 8), 50 μM of DHR-123 (Sigma) was added and the cells were incubated for 30 minutes at 37° C. They were then washed three times, treated once again by compounds according to the invention and placed in a medium without any phenol red. Living fluorescent neurones that were immediately photographed can be observed, the fluorescence density per neurone being quantified under an inverted fluorescence microscope by an image analysis software.

[2] = Study of the passage through the blood-brain barrier (HPLC-MS/MS of brain extracts); format: in vivo, mice; conditions: for average concentration of compound 2c in brain extracts: 5-day sub-chronic, ± SEM, n=8
Experimental: The purpose of this study is to use HPLC coupled with a mass spectrometer to verify the presence of molecule 2c according to the invention […] hydrochloride of molecule 2c (2c/HCl) by oral or intra-peritoneal (IP)pathway.
Animals: Male RjOrl: SWISS mice approximately 5 weeks old and weighing between 20 and 24 g on arrival (from the R Janvier Breeding Centre, France) are kept in the animal house at constant temperature (22±1° C.) and under controlled hygrometry (55±20%) with a 12 hours light/darkness cycle (8 h00-20 h00). The mice were allowed free access to food and drink during the acclimatisation and study period. All experiments took place in accordance with the conditions defined in decree No. 2001-464, May 29, 2001 dealing with experiments on animals.
Treatments: Two 5-day sub-chronic treatments were done (oral or intra-peritoneal pathway): • Treatment by Intra-Peritoneal Pathway (IP):
The solution of hydrochloride of 2c/HCl to be injected is prepared in the carrier (10% Tween20+20% DMSO+70% NaCl at 09% in water) at a concentration of 2.0 g/L. Three groups were formed: • (1) mice that received the carrier through the IP pathway, at 10 mL/kg (group N, n=4), • (2) mice treated with 2c/HCl by IP pathway, at 20 mg/kg and at 10 mL/kg (group R, n=6), and • (3) Control mice that received no treatment (n=2).
The treated mice R4, R5 and R6 and the carrier mice N1, N2, N3 and N4 received the following treatments:
The solution of hydrochloride of 2c to be administered is prepared in the carrier (0.5% Tween80+99.5% carboxy-methyl cellulose at 1%, in 0.9% NaCl in water) at a concentration of 15.0 g/L.
(2) mice treated with 2c/HCl by oral pathway at 150 mg/kg and at 10 mL/kg (Group B, n=6), and
All mice were treated twice per day for 4 days. On the 5th day, they received a final treatment and were euthanized between 3 h00 and 7 h30 after this last treatment, according to the following scheme:
Euthanasia: The mice are anaesthetised by the injection of 0.1 mL of a solution of sodium pentobarbital at 6% and an perfusion is then done on the mice so as to remove all traces of blood from the brain, with an 0.9% NaCl solution that contains heparin (200 μL of heparin choay at 5000 UI/mL in 1 liter of 0.9% NaCl). An perfusion with a minimum of 50 mL of this solution is done on each animal. The mouse brain is removed. The cerebellum, the brain stem and olfactory bulbs are eliminated.
The 3 parts of the brain are frozen in isopentane at −30° C. for one minute, and then kept separately at −80° C. […]
However, only parts 1 of the mice brains were extracted and analysed so as to keep samples for future analyses. […]
Instrumentation and conditions for analysis of compound 2c: Detection and quantification based on the area of the peaks are done using HPLC-MS/MS, in MRM mode. […]

**Q.** For `CCCCCCCCCCCCCCCCNCCc1c[nH]c2ccccc12` [Compound 2c, N-(2-(1H-indol-3-yl)ethyl)hexadecan-1-amine], which “IF/neurone (%) (fluorescence intensity per neurone)” value [1] is on record?
**A.** Its value is 47.8 ± 4.7 %.

**Q.** What about the “average concentration of compound 2c in brain extracts” value ([2]; mice, IP, 2c/HCl 20 mg/kg) of the same compound?
**A.** Its value is 14.73 ng/mL.

**Q.** And the “crossing of the BBB in vivo” value ([2]; mice, after IP and after per os administration of 2c/HCl)?
**A.** The value was “capable of crossing the BBB in vivo”.

**Q.** And the “average concentration of compound 2c in brain extracts” value ([2]; mice, per os, 2c/HCl 150 mg/kg twice per day (300 mg/kg/d))?
**A.** The value was 21.25 ng/mL.

**Q.** What about the “brain concentration after per os treatment relative to IP treatment” value ([2]; per os 300 mg/kg/d vs IP 20 mg/kg/d) of the same compound?
**A.** The value was “about 1.5 times”.
